Calls of active or inactive are those of the source. The calls are words filed in the database; no cut-off is given here.
Experiments:
[1] = molecular target: T1, Tyrosine-protein kinase Mer (Homo sapiens) (UniProt Q12866); assay: MERTK SGC Tm panel (DSF); conditions: for ΔTm: Compound concentration 10.0 uM
T1 sequence (whole entry): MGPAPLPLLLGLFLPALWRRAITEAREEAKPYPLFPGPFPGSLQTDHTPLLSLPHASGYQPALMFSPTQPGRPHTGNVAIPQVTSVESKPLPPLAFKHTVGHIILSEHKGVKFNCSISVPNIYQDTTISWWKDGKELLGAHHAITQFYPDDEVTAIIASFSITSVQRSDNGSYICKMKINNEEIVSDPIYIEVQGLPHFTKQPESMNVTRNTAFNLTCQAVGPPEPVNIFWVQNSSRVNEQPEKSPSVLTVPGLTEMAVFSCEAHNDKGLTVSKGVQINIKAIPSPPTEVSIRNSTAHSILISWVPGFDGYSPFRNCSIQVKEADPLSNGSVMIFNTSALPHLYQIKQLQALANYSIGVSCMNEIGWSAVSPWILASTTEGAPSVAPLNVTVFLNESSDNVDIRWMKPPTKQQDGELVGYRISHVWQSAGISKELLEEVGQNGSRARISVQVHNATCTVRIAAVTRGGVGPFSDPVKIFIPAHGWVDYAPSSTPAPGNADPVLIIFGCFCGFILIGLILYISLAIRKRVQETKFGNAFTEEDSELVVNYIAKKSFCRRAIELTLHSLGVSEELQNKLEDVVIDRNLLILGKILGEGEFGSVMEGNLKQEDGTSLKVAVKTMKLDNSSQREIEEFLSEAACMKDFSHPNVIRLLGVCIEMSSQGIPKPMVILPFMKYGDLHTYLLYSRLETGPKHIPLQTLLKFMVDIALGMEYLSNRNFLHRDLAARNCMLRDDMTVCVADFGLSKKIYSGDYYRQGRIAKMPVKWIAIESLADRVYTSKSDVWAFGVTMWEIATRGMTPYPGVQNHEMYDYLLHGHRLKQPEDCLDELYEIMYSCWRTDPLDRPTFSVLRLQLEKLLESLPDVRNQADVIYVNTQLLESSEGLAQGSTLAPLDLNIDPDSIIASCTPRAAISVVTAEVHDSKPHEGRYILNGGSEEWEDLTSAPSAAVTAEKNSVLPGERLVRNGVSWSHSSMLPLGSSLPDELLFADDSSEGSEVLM

[2] = molecular target: Cell division control protein 42 homolog (Homo sapiens) (UniProt P60953); assay: CDC42 SGC Tm panel (DSF); conditions: for ΔTm: Compound concentration 10.0 uM
Sequence of Cell division control protein 42 homolog (Homo sapiens) (P60953 whole entry, looked up): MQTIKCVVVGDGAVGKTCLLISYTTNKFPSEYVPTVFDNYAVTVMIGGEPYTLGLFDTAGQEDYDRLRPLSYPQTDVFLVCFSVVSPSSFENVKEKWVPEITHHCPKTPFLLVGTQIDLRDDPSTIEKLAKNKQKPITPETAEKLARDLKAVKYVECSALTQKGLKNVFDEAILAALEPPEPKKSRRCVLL

[3] = molecular target: MAP kinase-activated protein kinase 2 (Homo sapiens) (UniProt P49137); assay: MAPKAPK2 SGC Tm panel (DSF); conditions: for ΔTm: Compound concentration 10.0 uM
Sequence of MAP kinase-activated protein kinase 2 (Homo sapiens) (P49137 whole entry, looked up): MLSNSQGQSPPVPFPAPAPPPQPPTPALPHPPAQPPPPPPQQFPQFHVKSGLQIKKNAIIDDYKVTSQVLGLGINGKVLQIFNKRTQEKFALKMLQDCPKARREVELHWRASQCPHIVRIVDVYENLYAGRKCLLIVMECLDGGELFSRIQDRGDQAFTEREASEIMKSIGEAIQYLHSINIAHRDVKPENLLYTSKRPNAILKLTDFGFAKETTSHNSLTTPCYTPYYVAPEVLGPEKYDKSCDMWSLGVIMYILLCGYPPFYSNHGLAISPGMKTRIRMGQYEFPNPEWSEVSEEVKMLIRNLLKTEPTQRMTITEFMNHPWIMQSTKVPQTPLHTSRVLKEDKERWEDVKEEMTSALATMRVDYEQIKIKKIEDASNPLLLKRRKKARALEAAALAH

[4] = molecular target: RAC-gamma serine/threonine-protein kinase (Homo sapiens) (UniProt Q9Y243); assay: AKT3 SGC Tm panel (DSF); conditions: for ΔTm: Compound concentration 10.0 uM
Sequence of RAC-gamma serine/threonine-protein kinase (Homo sapiens) (Q9Y243 whole entry): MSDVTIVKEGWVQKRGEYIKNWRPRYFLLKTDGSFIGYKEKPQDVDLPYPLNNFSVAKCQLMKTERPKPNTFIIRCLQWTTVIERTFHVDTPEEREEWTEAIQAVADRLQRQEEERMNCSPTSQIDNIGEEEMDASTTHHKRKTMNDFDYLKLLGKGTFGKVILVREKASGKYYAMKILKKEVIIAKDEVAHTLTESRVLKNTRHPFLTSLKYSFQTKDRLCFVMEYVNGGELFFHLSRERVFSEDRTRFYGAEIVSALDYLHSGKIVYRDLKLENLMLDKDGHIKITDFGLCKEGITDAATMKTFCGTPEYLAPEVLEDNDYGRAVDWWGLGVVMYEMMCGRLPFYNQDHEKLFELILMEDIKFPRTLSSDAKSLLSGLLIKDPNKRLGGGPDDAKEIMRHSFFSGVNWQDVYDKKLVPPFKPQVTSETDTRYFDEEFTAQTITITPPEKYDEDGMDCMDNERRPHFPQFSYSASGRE

[5] = molecular target: SWI/SNF-related matrix-associated actin-dependent regulator of chromatin subfamily A member 4 (Homo sapiens, UniProt P51532); assay: Luciferase reporter assay: SMARCA4 transcriptional activity in a SMARCA2-mutant cell line; assay type: functional
Sequence of SWI/SNF-related matrix-associated actin-dependent regulator of chromatin subfamily A member 4 (P51532 whole entry, looked up, stated change not applied): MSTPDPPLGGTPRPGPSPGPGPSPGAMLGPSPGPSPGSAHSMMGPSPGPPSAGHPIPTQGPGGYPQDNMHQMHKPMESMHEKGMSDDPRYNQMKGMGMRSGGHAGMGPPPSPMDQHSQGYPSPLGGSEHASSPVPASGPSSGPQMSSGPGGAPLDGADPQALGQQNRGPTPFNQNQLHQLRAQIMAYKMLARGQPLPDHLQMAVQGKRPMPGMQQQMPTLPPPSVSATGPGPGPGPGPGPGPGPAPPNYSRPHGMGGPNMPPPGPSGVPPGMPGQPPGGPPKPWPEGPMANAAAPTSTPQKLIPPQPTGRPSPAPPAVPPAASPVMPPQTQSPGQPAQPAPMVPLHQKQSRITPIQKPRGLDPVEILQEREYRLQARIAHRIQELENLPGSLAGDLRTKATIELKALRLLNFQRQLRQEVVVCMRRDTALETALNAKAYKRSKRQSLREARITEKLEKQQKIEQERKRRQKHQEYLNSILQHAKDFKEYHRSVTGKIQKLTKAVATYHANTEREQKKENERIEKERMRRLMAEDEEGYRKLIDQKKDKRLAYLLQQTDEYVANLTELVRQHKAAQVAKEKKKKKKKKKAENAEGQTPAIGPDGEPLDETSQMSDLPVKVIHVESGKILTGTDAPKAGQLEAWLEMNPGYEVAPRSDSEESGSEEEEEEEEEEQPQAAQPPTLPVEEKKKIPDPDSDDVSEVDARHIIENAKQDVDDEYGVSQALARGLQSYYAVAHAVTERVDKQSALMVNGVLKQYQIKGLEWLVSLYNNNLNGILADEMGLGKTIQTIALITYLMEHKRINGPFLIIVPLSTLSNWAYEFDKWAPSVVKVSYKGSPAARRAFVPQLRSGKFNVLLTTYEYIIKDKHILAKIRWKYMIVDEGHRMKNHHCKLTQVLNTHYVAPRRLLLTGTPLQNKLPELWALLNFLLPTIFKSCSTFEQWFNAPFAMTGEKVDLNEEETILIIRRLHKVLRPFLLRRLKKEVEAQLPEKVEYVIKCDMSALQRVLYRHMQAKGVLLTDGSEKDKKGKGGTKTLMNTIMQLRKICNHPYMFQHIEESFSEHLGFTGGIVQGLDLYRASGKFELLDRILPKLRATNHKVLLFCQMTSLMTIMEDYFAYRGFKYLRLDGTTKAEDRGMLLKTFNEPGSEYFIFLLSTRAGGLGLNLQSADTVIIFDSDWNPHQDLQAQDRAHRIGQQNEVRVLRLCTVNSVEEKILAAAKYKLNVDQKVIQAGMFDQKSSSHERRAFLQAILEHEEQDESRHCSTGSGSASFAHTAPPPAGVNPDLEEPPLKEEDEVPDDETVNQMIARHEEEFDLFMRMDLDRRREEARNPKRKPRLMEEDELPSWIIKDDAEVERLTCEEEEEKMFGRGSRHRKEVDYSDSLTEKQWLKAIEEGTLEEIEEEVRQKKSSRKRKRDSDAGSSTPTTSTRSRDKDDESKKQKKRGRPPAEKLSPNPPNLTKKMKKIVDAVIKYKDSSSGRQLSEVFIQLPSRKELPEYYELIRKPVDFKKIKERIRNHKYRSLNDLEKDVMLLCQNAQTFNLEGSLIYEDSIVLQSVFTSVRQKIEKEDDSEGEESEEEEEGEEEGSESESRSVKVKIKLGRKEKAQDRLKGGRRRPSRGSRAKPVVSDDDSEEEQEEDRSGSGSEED

[6] = molecular target: T2, Dual specificity protein kinase TTK (Homo sapiens) (UniProt P33981); assay: TTK SGC Tm panel (DSF); conditions: for ΔTm: Compound concentration 10.0 uM
T2 sequence (whole entry): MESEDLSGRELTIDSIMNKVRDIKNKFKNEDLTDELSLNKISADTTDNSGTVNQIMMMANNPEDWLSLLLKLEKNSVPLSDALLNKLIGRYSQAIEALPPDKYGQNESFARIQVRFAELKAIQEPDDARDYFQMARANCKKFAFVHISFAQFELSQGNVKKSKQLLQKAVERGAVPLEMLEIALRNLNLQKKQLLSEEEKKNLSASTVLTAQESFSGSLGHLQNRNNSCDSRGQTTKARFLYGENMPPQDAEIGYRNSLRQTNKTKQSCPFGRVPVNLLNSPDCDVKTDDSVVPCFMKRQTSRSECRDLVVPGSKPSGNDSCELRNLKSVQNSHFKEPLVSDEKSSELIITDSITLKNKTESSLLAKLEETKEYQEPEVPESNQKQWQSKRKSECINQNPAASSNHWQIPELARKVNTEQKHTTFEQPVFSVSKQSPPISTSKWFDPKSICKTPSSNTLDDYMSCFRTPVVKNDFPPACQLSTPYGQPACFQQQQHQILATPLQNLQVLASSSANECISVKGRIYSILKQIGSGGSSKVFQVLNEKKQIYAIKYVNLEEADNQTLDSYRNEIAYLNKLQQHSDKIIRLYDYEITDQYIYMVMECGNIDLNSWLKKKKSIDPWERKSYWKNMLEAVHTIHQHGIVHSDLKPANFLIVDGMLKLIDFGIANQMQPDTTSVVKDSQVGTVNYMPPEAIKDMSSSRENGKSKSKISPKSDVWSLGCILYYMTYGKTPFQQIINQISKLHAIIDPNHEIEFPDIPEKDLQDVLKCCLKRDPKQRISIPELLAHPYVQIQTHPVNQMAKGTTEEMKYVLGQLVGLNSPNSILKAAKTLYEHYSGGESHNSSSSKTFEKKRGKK

[7] = molecular target: STE20-like serine/threonine-protein kinase (Homo sapiens) (UniProt Q9H2G2); assay: SLK SGC Tm panel (DSF); conditions: for ΔTm: Compound concentration 10.0 uM
Sequence of STE20-like serine/threonine-protein kinase (Homo sapiens) (Q9H2G2 whole entry, looked up): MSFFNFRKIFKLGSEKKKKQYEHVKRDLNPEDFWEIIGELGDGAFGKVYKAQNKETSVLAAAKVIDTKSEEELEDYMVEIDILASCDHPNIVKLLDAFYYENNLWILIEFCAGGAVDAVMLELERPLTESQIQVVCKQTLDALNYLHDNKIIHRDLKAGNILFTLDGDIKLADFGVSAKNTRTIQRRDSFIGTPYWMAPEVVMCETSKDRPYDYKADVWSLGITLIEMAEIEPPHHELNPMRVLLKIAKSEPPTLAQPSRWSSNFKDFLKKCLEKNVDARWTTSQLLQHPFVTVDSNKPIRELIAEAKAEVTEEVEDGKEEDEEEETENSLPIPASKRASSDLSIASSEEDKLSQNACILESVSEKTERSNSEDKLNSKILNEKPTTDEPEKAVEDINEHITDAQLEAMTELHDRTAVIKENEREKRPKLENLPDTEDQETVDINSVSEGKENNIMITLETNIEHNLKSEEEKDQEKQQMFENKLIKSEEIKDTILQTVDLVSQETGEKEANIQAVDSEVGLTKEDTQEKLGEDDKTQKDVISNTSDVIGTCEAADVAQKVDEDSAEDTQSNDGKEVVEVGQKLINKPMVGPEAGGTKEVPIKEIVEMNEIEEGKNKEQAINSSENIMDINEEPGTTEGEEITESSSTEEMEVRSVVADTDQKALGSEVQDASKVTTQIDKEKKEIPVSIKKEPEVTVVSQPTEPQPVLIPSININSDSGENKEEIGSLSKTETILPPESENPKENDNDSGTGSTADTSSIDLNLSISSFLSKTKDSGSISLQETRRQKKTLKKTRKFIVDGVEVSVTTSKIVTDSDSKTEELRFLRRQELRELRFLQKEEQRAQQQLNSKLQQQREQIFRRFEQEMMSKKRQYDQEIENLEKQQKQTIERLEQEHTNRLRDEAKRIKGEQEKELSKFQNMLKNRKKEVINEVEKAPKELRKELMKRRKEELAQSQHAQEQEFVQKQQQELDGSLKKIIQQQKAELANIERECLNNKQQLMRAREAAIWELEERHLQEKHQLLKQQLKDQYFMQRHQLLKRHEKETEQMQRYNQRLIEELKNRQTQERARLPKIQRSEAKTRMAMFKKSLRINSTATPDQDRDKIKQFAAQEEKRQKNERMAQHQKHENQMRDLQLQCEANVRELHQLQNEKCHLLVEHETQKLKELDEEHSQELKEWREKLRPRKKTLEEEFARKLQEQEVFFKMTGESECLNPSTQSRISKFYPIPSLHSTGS

[8] = molecular target: Calcium/calmodulin-dependent protein kinase type 1D (Homo sapiens) (UniProt Q8IU85); assay: CAMK1D SGC Tm panel (DSF); conditions: for ΔTm: Compound concentration 10.0 uM
Sequence of Calcium/calmodulin-dependent protein kinase type 1D (Homo sapiens) (Q8IU85 whole entry, looked up): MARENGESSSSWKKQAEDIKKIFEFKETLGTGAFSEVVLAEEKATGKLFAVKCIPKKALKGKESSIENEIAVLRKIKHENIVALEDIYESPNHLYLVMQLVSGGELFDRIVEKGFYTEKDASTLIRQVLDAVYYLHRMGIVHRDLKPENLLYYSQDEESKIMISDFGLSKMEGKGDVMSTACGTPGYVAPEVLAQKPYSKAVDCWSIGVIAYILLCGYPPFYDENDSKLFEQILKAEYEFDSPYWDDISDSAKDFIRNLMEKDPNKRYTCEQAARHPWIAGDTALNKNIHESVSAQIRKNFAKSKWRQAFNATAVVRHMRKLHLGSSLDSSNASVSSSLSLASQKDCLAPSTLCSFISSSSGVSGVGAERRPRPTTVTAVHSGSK

[9] = molecular target: T3, Serine/threonine-protein kinase 3 (Homo sapiens) (UniProt Q13188); assay: STK3 SGC Tm panel (DSF); conditions: for ΔTm: Compound concentration 10.0 uM
T3 sequence (whole entry): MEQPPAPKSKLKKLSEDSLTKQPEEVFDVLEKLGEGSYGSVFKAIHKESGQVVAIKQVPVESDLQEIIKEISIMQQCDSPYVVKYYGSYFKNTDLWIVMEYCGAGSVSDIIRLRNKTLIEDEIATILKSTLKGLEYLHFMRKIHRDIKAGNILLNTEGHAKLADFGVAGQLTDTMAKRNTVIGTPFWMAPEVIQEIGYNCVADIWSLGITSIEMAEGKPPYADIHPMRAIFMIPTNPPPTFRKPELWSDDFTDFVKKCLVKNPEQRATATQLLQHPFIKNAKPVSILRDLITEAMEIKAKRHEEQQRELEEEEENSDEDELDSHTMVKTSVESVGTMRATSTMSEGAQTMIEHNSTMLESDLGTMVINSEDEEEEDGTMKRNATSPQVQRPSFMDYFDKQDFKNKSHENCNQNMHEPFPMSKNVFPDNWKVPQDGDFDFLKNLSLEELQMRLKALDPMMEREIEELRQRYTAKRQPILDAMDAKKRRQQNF

[10] = molecular target: D(4) dopamine receptor (Homo sapiens) (UniProt P21917); conditions: Compound concentration 10.0 uM
Sequence of D(4) dopamine receptor (Homo sapiens) (P21917 whole entry): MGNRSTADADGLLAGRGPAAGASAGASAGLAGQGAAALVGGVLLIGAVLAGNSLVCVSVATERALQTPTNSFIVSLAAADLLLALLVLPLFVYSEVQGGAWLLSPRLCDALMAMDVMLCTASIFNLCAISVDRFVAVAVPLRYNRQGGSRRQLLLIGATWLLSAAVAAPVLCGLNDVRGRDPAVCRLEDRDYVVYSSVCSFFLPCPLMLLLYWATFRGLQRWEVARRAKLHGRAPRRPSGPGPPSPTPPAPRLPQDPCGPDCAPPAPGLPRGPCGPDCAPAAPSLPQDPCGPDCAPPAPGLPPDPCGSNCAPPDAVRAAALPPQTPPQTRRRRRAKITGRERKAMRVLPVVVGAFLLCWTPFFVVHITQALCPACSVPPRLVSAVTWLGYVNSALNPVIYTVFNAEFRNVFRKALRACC

delta Tm Staurosporine positive control [1] | ΔTm [1] | delta Tm Staurosporine positive control [2] | ΔTm [2] | delta Tm Staurosporine positive control [3] | ΔTm [3] | delta Tm Staurosporine positive control [4] | ΔTm [4] | IC50 [5] | delta Tm Staurosporine positive control [6] | ΔTm [6] | delta Tm Staurosporine positive control [7] | ΔTm [7] | delta Tm Staurosporine positive control [8] | ΔTm [8] | delta Tm Staurosporine positive control [9] | ΔTm [9] | inhibition [10] [%] | SMILES
6.35 | 0.54 | 2.78 | 0.57 | 3.41 | 0.842 | 7.03 | 0.0196 | 30.2 nM (active) | 8.8 | -1.35 | 12.2 | 1.33 | 10.8 | 0.174 | 15.5 | 1.34 | 1.52 | COC[C@H](NC(=O)c1ccn(S(C)(=O)=O)c1)C(=O)Nc1nc(-c2cccc(-c3ccn(C)n3)c2)cs1
6.35 | 0.284 | 2.78 | -0.206 | 3.41 | -9.54 | 7.03 | 0.193 | 2370 nM (not active) | 8.8 | -0.371 | 12.2 | 0.23 | 10.8 | 0.455 | 15.5 | 0.324 | 6.59 | C[C@H](NC(=O)c1cn(C2(C#N)CC2)cn1)C(=O)Nc1nc(-c2cccc(-c3ccn(C)n3)c2)cs1
